Laboratory results as given in ChEMBL document CHEMBL4818987, “Recent advances of podophyllotoxin/epipodophyllotoxin hybrids in anticancer activity, mode of action, and structure-activity relationship: An update (2010-2020)” (Eur J Med Chem, 2020).

Assays:
Format in all cases: functional, cell-based
MCF7 = assay: Antiproliferative activity against human MCF7 cells incubated for 48 hrs by MTT assay; settings: MCF7, 48 h
SMMC-7721 = assay: Antiproliferative activity against human SMMC-7721 cells incubated for 48 hrs by MTT assay; settings: SMMC-7721, 48 h
A549 = assay: Antiproliferative activity against human A549 cells incubated for 48 hrs by MTT assay; settings: A549, 48 h
SW480 = assay: Antiproliferative activity against human SW480 cells incubated for 48 hrs by MTT assay; settings: SW480, 48 h
HL-60 = assay: Antiproliferative activity against human HL-60 cells incubated for 48 hrs by MTT assay; settings: HL-60, 48 h
B16 = assay: Antiproliferative activity against […] cells incubated for 48 to 72 hrs by MTT assay; settings: Mus musculus
HepG2 = assay: Antiproliferative activity against human HepG2 cells incubated for 48 to 72 hrs by MTT assay
NCI-H1993 = assay: Antiproliferative activity against human NCI-H1993 cells incubated for 48 to 72 hrs by MTT assay
MKN-45 = assay: Antiproliferative activity against human MKN-45 cells incubated for 48 to 72 hrs by MTT assay

COc1cc([C@@H]2c3cc4c(cc3[C@H](OC(=O)CCCCCNC(=O)CCCC[C@@H]3SC[C@@H]5NC(=O)N[C@@H]53)[C@H]3COC(=O)[C@H]23)OCO4)cc(OC)c1OC
IC50 (MCF7): > 130 nM
IC50 (SMMC-7721): > 130 nM
IC50 (A549): > 130 nM
IC50 (SW480): > 130 nM
IC50 (HL-60): > 130 nM

COc1cc(C(=O)/C=C/c2ccncc2)ccc1OCc1cn([C@H]2c3cc4c(cc3[C@@H](c3cc(OC)c(OC)c(OC)c3)[C@H]3C(=O)OC[C@@H]32)OCO4)nn1
IC50 (B16): 130 nM
IC50 (HepG2): 130 nM
IC50 (NCI-H1993): 130 nM
IC50 (MKN-45): 130 nM

COc1cc([C@@H]2c3cc4c(cc3[C@@H](OC(=O)CCCCCNC(=O)CCCC[C@@H]3SC[C@@H]5NC(=O)N[C@@H]53)[C@H]3COC(=O)[C@H]23)OCO4)cc(OC)c1O
IC50 (MCF7): > 130 nM
IC50 (SMMC-7721): > 130 nM
IC50 (A549): > 130 nM
IC50 (SW480): > 130 nM
IC50 (HL-60): > 130 nM

COc1cc(C(=O)/C=C/c2ccc(N(C)C)cc2)ccc1OCc1cn([C@H]2c3cc4c(cc3[C@@H](c3cc(OC)c(OC)c(OC)c3)[C@H]3C(=O)OC[C@@H]32)OCO4)nn1
IC50 (B16): 130 nM
IC50 (HepG2): 130 nM
IC50 (NCI-H1993): 130 nM
IC50 (MKN-45): 130 nM

COc1cc(C(=O)/C=C/c2ccc(C(F)(F)F)cc2)ccc1OCc1cn([C@H]2c3cc4c(cc3[C@@H](c3cc(OC)c(OC)c(OC)c3)[C@H]3C(=O)OC[C@@H]32)OCO4)nn1
IC50 (B16): 130 nM
IC50 (HepG2): 130 nM
IC50 (NCI-H1993): 130 nM
IC50 (MKN-45): 130 nM

COc1cc([C@@H]2c3cc4c(cc3[C@@H](n3cc(COC(=O)CCCC[C@@H]5SC[C@@H]6NC(=O)N[C@@H]65)nn3)[C@H]3COC(=O)[C@H]23)OCO4)cc(OC)c1O
IC50 (MCF7): > 130 nM
IC50 (SMMC-7721): > 130 nM
IC50 (A549): > 130 nM
IC50 (SW480): > 130 nM
IC50 (HL-60): > 130 nM

COc1ccccc1/C=C/C(=O)c1ccc(OCc2cn([C@H]3c4cc5c(cc4[C@@H](c4cc(OC)c(OC)c(OC)c4)[C@H]4C(=O)OC[C@@H]43)OCO5)nn2)c(OC)c1
IC50 (B16): 130 nM
IC50 (HepG2): 130 nM
IC50 (NCI-H1993): 130 nM
IC50 (MKN-45): 130 nM

COc1cc([C@@H]2c3cc4c(cc3[C@@H](OC(=O)CCCCCNC(=O)CCCC[C@@H]3SC[C@@H]5NC(=O)N[C@@H]53)[C@H]3COC(=O)[C@H]23)OCO4)cc(OC)c1OC
IC50 (MCF7): > 130 nM
IC50 (SMMC-7721): > 130 nM
IC50 (A549): > 130 nM
IC50 (SW480): > 130 nM
IC50 (HL-60): > 130 nM

COc1cc([C@@H]2c3cc4c(cc3[C@@H](NC(=O)CCCC[C@@H]3SC[C@@H]5NC(=O)N[C@@H]53)[C@H]3COC(=O)[C@H]23)OCO4)cc(OC)c1OC
IC50 (MCF7): > 130 nM
IC50 (SMMC-7721): > 130 nM
IC50 (A549): > 130 nM
IC50 (SW480): > 130 nM
IC50 (HL-60): > 130 nM

COc1cc(C(C)=O)ccc1OCc1cn([C@H]2c3cc4c(cc3[C@@H](c3cc(OC)c(OC)c(OC)c3)[C@H]3C(=O)OC[C@@H]32)OCO4)nn1
IC50 (B16): 130 nM
IC50 (HepG2): 130 nM
IC50 (NCI-H1993): 130 nM
IC50 (MKN-45): 130 nM

COc1cc([C@@H]2c3cc4c(cc3[C@H](OC(=O)CCCC[C@@H]3SC[C@@H]5NC(=O)N[C@@H]53)[C@H]3COC(=O)[C@H]23)OCO4)cc(OC)c1OC
IC50 (MCF7): > 130 nM
IC50 (SMMC-7721): > 130 nM
IC50 (A549): > 130 nM
IC50 (SW480): > 130 nM
IC50 (HL-60): > 130 nM

COc1ccc(/C=C/C(=O)c2ccc(OCc3cn([C@H]4c5cc6c(cc5[C@@H](c5cc(OC)c(OC)c(OC)c5)[C@H]5C(=O)OC[C@@H]54)OCO6)nn3)c(OC)c2)cc1OC
IC50 (B16): 130 nM
IC50 (HepG2): 130 nM
IC50 (NCI-H1993): 130 nM
IC50 (MKN-45): 130 nM

COc1cc(C(=O)/C=C/c2ccsc2)ccc1OCc1cn([C@H]2c3cc4c(cc3[C@@H](c3cc(OC)c(OC)c(OC)c3)[C@H]3C(=O)OC[C@@H]32)OCO4)nn1
IC50 (B16): 130 nM
IC50 (HepG2): 130 nM
IC50 (NCI-H1993): 130 nM
IC50 (MKN-45): 130 nM

COc1cc(C(=O)/C=C/c2cc(OC)c(OC)c(OC)c2)ccc1OCc1cn([C@H]2c3cc4c(cc3[C@@H](c3cc(OC)c(OC)c(OC)c3)[C@H]3C(=O)OC[C@@H]32)OCO4)nn1
IC50 (B16): 130 nM
IC50 (HepG2): 130 nM
IC50 (NCI-H1993): 130 nM
IC50 (MKN-45): 130 nM

COc1ccc(OC(C)(C)c2cn([C@H]3c4cc5c(cc4[C@@H](c4cc(OC)c(OC)c(OC)c4)[C@H]4C(=O)OC[C@@H]43)OCO5)nn2)cc1
IC50 (B16): 130 nM
IC50 (HepG2): 130 nM
IC50 (NCI-H1993): 130 nM
IC50 (MKN-45): 130 nM

COc1cc([C@@H]2c3cc4c(cc3[C@@H](NC(=O)CCCCCNC(=O)CCCC[C@@H]3SC[C@@H]5NC(=O)N[C@@H]53)[C@H]3COC(=O)[C@H]23)OCO4)cc(OC)c1O
IC50 (MCF7): > 130 nM
IC50 (SMMC-7721): > 130 nM
IC50 (A549): > 130 nM
IC50 (SW480): > 130 nM
IC50 (HL-60): > 130 nM

COc1cc([C@@H]2c3cc4c(cc3[C@H](n3cc(CNC(=O)c5ccc(Cl)cc5)nn3)[C@H]3COC(=O)[C@H]23)OCO4)cc(OC)c1OC
IC50 (B16): 130 nM
IC50 (HepG2): 130 nM
IC50 (NCI-H1993): 130 nM
IC50 (MKN-45): 130 nM

COc1cc([C@@H]2c3cc4c(cc3[C@@H](OC(=O)CCCC[C@@H]3SC[C@@H]5NC(=O)N[C@@H]53)[C@H]3COC(=O)[C@H]23)OCO4)cc(OC)c1OC
IC50 (MCF7): > 130 nM
IC50 (SMMC-7721): > 130 nM
IC50 (A549): > 130 nM
IC50 (SW480): > 130 nM
IC50 (HL-60): > 130 nM

COc1cc([C@@H]2c3cc4c(cc3[C@H](n3cc(CNC(=O)c5ccccc5Cl)nn3)[C@H]3COC(=O)[C@H]23)OCO4)cc(OC)c1OC
IC50 (B16): 130 nM
IC50 (HepG2): 130 nM
IC50 (NCI-H1993): 130 nM
IC50 (MKN-45): 130 nM

COc1cc([C@@H]2c3cc4c(cc3[C@H](n3cc(C(C)(C)Oc5ccc([N+](=O)[O-])cc5)nn3)[C@H]3COC(=O)[C@H]23)OCO4)cc(OC)c1OC
IC50 (B16): 130 nM
IC50 (HepG2): 130 nM
IC50 (NCI-H1993): 130 nM
IC50 (MKN-45): 130 nM

COc1cc(OC)c(OC)cc1/C=C/C(=O)c1ccc(OCc2cn([C@H]3c4cc5c(cc4[C@@H](c4cc(OC)c(OC)c(OC)c4)[C@H]4C(=O)OC[C@@H]43)OCO5)nn2)c(OC)c1
IC50 (B16): 130 nM
IC50 (HepG2): 130 nM
IC50 (NCI-H1993): 130 nM
IC50 (MKN-45): 130 nM

COc1cc(C(=O)/C=C/c2ccc(F)cc2)ccc1OCc1cn([C@H]2c3cc4c(cc3[C@@H](c3cc(OC)c(OC)c(OC)c3)[C@H]3C(=O)OC[C@@H]32)OCO4)nn1
IC50 (B16): 130 nM
IC50 (HepG2): 130 nM
IC50 (NCI-H1993): 130 nM
IC50 (MKN-45): 130 nM

COc1cc(C(=O)/C=C/c2cccs2)ccc1OCc1cn([C@H]2c3cc4c(cc3[C@@H](c3cc(OC)c(OC)c(OC)c3)[C@H]3C(=O)OC[C@@H]32)OCO4)nn1
IC50 (B16): 130 nM
IC50 (HepG2): 130 nM
IC50 (NCI-H1993): 130 nM
IC50 (MKN-45): 130 nM

COc1cc([C@@H]2c3cc4c(cc3[C@@H](NC(=O)CCCCCNC(=O)CCCC[C@@H]3SC[C@@H]5NC(=O)N[C@@H]53)[C@H]3COC(=O)[C@H]23)OCO4)cc(OC)c1OC
IC50 (MCF7): > 130 nM
IC50 (SMMC-7721): > 130 nM
IC50 (A549): > 130 nM
IC50 (SW480): > 130 nM
IC50 (HL-60): > 130 nM

COc1cc([C@@H]2c3cc4c(cc3[C@@H](NC(=O)CCCC[C@@H]3SC[C@@H]5NC(=O)N[C@@H]53)[C@H]3COC(=O)[C@H]23)OCO4)cc(OC)c1O
IC50 (MCF7): > 130 nM
IC50 (SMMC-7721): > 130 nM
IC50 (A549): > 130 nM
IC50 (SW480): > 130 nM
IC50 (HL-60): > 130 nM
